Key:
Format in all cases: functional
Spodoptera litura [1] = test: Insecticidal activity against third-instar larval stage of Spodoptera litura fed on compound-treated castor leaves assessed as pupal mortality at 5 ug/cm2 (reference value: 4.17%)
Spodoptera litura [2] = test: Insecticidal activity against third-instar larval stage of Spodoptera litura fed on compound-treated castor leaves assessed as pupal mortality at 10 ug/cm2 (reference value: 4.17%)
Spodoptera litura [3] = test: Insecticidal activity against third-instar larval stage of Spodoptera litura fed on compound-treated castor leaves assessed as pupal duration time at 5 ug/cm2 (reference value: 8.1 +/- 0.14 days)
Spodoptera litura [4] = test: Insecticidal activity against third-instar larval stage of Spodoptera litura fed on compound-treated castor leaves assessed as pupal duration time at 10 ug/cm2 (reference value: 8.1 +/- 0.14 days)
Spodoptera litura [5] = test: Insecticidal activity against third-instar larval stage of Spodoptera litura fed on compound-treated castor leaves assessed as larval mortality at 10 ug/cm2 (reference value: 4%)
Spodoptera litura [6] = test: Insecticidal activity against third-instar larval stage of Spodoptera litura fed on compound-treated castor leaves assessed as total larval duration time at 5 ug/cm2 (reference value: 12.7 +/- 0.89 days)
Spodoptera litura [7] = test: Insecticidal activity against third-instar larval stage of Spodoptera litura fed on compound-treated castor leaves assessed as total larval duration time at 10 ug/cm2 (reference value: 12.7 +/- 0.89 days)
Spodoptera litura [8] = test: Antifeedant activity against third-instar larval stage of Spodoptera litura fed on compound-treated castor leaves assessed as feeding deterrence index at 5 ug/cm2 by dual choice leaf disc method
Spodoptera litura [9] = test: Antifeedant activity against third-instar larval stage of Spodoptera litura fed on compound-treated castor leaves assessed as feeding deterrence index at 10 ug/cm2 by dual choice leaf disc method
Spodoptera litura [10] = test: Insecticidal activity against third-instar larval stage of Spodoptera litura fed on compound-treated castor leaves assessed as larval mortality at 5 ug/cm2 (reference value: 4%)

Compound | mortality at 5 µg/cm2 (Spodoptera litura [1]) | mortality at 10 µg/cm2 (Spodoptera litura [2]) | Time (Spodoptera litura [3]) | Time (Spodoptera litura [4]) | mortality at 10 µg/cm2 (Spodoptera litura [5]) | Time (Spodoptera litura [6]) | Time (Spodoptera litura [7]) | FDI (Spodoptera litura [8]) | FDI (Spodoptera litura [9]) | mortality at 5 µg/cm2 (Spodoptera litura [10])
C/C=C(\C)C(=O)O[C@H]1C[C@@H](OC(C)=O)[C@@]2(C(=O)OC)CO[C@H]3[C@@H](O)[C@@](C)([C@]45O[C@@]4(C)[C@@H]4C[C@H]5O[C@@H]5OC=C[C@@]54O)[C@H]4[C@]1(CO[C@]4(O)C(=O)OC)[C@@H]32 [AZADIRACHTIN A] | 33.2% | 40% | 9.8 days | 10.14 days | 64% | 15 days | 16.3 days | 15.62% | 12.59% | 
C/C=C(\C)C(=O)O[C@H]1C[C@@H](O)[C@@]2(C)CO[C@H]3[C@H]4O[C@@H]5C[C@@H](C6=CCOC6=O)C(C)=C5[C@@]4(C)[C@H](CC(=O)OC)[C@]1(C)[C@@H]32 [DESACETYLSALANNOBUTYROLACTONE] | 27.3% | 33.3% | 8.41 days | 8.6 days | 40% | 13.1 days | 14.4 days | 50.45% | 47.97% | 24%
C/C=C(\C)C(=O)O[C@H]1C[C@@H](OC(C)=O)[C@@]2(C)CO[C@H]3[C@H]4O[C@@H]5C[C@@H](C6=CCOC6=O)C(C)=C5[C@@]4(C)[C@H](CC(=O)OC)[C@]1(C)[C@@H]32 [SALANNOBUTYROLACTONE] | 30.2% | 37.2% | 8.7 days | 9.4 days | 52% | 14 days | 15.5 days | 39.34% | 36.69% | 32%
